From PubChem BioAssay AID504322 (Emory University Molecular Libraries Screening Center, 2011)
The source made the active and inactive calls. No rule for the calls is given here.

Tested on: CHOP reporter cell assay, percent of control
Experiment: CHOP reporter inhibitor potency, dose response, cell-based (AID 504322);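 also: CHO cells carrying a CHOP reporter stimulated with tunicamycin to induce ER stress; potency is for inhibition of the stress-induced reporter signal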

| SMILES | IC50 |
| --- | --- |
| O=S(=O)(/C(=C/c1ccc(C(F)(F)F)cc1)c1nc2ccccc2[nH]1)c1ccccc1 | 5.46 µM (inactive) |
| O=C1NC(=S)S/C1=C\C=C\c1ccc([N+](=O)[O-])o1 | 9.29 µM (inactive) |
| Nc1c(C(=O)Nc2ccccc2F)sc2nc(-c3cccnc3)ccc12 | > 10 µM (inactive) |
| O=[N+]([O-])c1cc(S(=O)(=O)C(F)(F)F)ccc1Sc1nc2ccccc2[nH]1 | 9.3 µM (inactive) |
| COC(=O)c1c(NC(=O)Nc2ccc(Cl)cc2)sc(C)c1C | 9.33 µM (inactive) |
| CCOc1cc(NC(=O)CCl)c(OCC)cc1NC(=O)CCl | > 10 µM (inactive) |
| COc1cc(/C=C/C(=O)OC2CC3CCC2(C)C3(C)C)ccc1O (stereo unspecified) | 9.52 µM (inactive) |
| CN(C)CCCn1c(SCC(=O)Nc2nc(-c3cccc(Br)c3)cs2)nc2ccccc2c1=O | 9.51 µM (inactive) |
| CC1=CC(C)(C)N(C(=O)c2ccc(F)cc2)c2cc3c(cc21)OCO3 | 5.31 µM (inactive) |
| CC(=O)OC[C@]12CCC(C)=C[C@H]1O[C@@H]1[C@H](O)[C@@H](OC(C)=O)[C@@]2(C)[C@]12CO2 | < 0.16 µM (inactive) |
| OC(c1cccc(OCc2ccccc2)c1)c1nnc(-c2ccccc2)o1 (stereo unspecified) | > 10 µM (inactive) |
| COc1cccc(NC(=O)CSc2nnc(-c3cc(C)n(-c4ccccc4)c3C)o2)c1 | 1.76 µM (inactive) |
| COc1ccc(C(=O)NNC(=O)c2ccccn2)cc1 | 3.12 µM (inactive) |
| Cc1ccc(-n2c(Cl)c(Cl)nc(Cl)c2=O)cc1 | 1.04 µM |
| CC[n+]1c(/C=C2\Sc3ccccc3N2C)ccc2cccc(C)c21 | > 10 µM (inactive) |
| CCCCn1c(NS(=O)(=O)c2ccc(C)cc2)c(S(=O)(=O)c2ccccc2)c2nc3ccccc3nc21 | > 10 µM (inactive) |
| CC(=O)N(C1=C(Cl)C(=O)c2ccccc2C1=O)C1CCCCC1 | 8.08 µM (inactive) |
| O=[N+]([O-])c1ccc(COc2ccc(-c3[nH]ncc3-c3ccccc3)c(O)c2)cc1 | 9.61 µM (inactive) |
| Cc1ccc(Cn2c(SCC(=O)Nc3cc(C)on3)nc3ccccc3c2=O)cc1 | 5.78 µM (inactive) |
| O=C(NC1CCCCC1)C(c1ccc(F)cc1)N(Cc1ccccc1)C(=O)CN1C(=O)c2ccccc2S1(=O)=O (stereo unspecified) | 4.85 µM |
| O=C(/C=C/c1cccc(C(F)(F)F)c1)Nc1cccc(C(F)(F)F)c1 | 2.49 µM (inactive) |
| Cc1cccc(NC2=C/C(=N/S(=O)(=O)c3cccs3)c3ccccc3C2=O)c1 | 4.44 µM |
| CCOC(=O)/C=C/S(=O)(=O)c1ccc(NC(C)=O)cc1 | 4.78 µM |
| Cc1nc(COC(=O)c2cc(O)c3ccccc3c2O)cs1 | > 10 µM (inactive) |

| SMILES | IC50 |
| --- | --- |
| O=C1C(Cl)=C(Nc2ccccc2)C(=O)c2ccccc21 | > 10 µM (inactive) |
| O=C(Nc1ccccc1C(F)(F)F)c1cc(-c2ccc(O)cc2)on1 | 9.47 µM (inactive) |
| Nc1nc(-c2ccccc2)c(N=Nc2ccccc2Cl)s1 | 8.65 µM (inactive) |
| CCn1c(C)nc2cc(-c3nc4n(n3)Cc3ccccc3-4)ccc21 | < 0.16 µM (inactive) |
| C=CCN1C(=O)/C(=C/c2ccc(OC(C)=O)c(OCC)c2[N+](=O)[O-])SC1=S | 5.3 µM (inactive) |
| FC(F)(F)c1nnc(-c2ccccc2)nc1Sc1ccc(Cl)cc1 | > 10 µM (inactive) |
| C=C(C)COc1ccc(-c2[nH]ncc2Oc2ccccc2OCC)c(O)c1 | 1.94 µM |
| CCOc1cc(C)c(-c2onc(C(F)(F)F)c2-c2csc(C)n2)c(O)c1 | > 10 µM (inactive) |
| CC(C)(C)c1cc(-c2csc(Nc3ccccc3)[n+]2Cc2ccc(C(=O)O)cc2)cc(C(C)(C)C)c1O | 9.46 µM (inactive) |
| CC(CNC(=S)Nc1cc(F)cc(F)c1)CSc1ccc(Cl)cc1 (stereo unspecified) | > 10 µM (inactive) |
| CC(=O)OCCCNc1cc(Sc2ccc(Cl)cc2)c2nonc2c1[N+](=O)[O-] | > 10 µM (inactive) |
| Cc1ccc(-c2nn(CC(=O)NCc3cc(-c4nn(C)c(=O)c5ccccc45)ccc3C)c(=O)c3ccccc23)cc1 | 9.88 µM (inactive) |
| C=CCn1c(C)cc(C2=NNC(=NCC)SC2)c1C | < 0.16 µM |
| O=C(N/N=C/c1ccccn1)c1cc(-c2ccc3ccccc3c2)n[nH]1 | > 10 µM (inactive) |
| Cc1cccc(NC(=S)NC(NC(=O)OCc2ccccc2)C(Cl)(Cl)Cl)c1 (stereo unspecified) | 9.44 µM (inactive) |
| CCOc1cc(S(=O)(=O)Nc2ccccc2CC)ccc1Cl | 7 µM (inactive) |
| CCOc1cc(/C=N\NC(=O)Cc2ccccc2)ccc1OCC(=O)Nc1ccc(C)c(C)c1 | 6.38 µM (inactive) |
| O=C(CN1CCN(c2ncc(C(F)(F)F)cc2Cl)CC1)NCCNc1ncc(C(F)(F)F)cc1Cl | 3.88 µM |
| Cc1ccc(-c2cc3c(nn2)-c2ccccc2C3=O)cc1 | 6.03 µM (inactive) |
| CCOc1cc(CNc2ccc(O)cc2)ccc1OCc1ccc(Cl)cc1Cl | 1.72 µM |
| COc1ccc(-c2nc(NC(=O)Cn3ccc(C(F)(F)F)n3)sc2C)cc1 | > 10 µM (inactive) |
| COc1ccc(C(=O)/C=C/C(=O)N(CC(=O)NCCC(C)C)Cc2cccs2)c(O)c1 | 9.55 µM (inactive) |
| CCCCc1ccc(Nc2nc(CCC)cc(=O)[nH]2)cc1 | 1.97 µM (inactive) |
| O=C1c2ccccc2C(=O)c2c1oc(C(F)(F)F)c2C(=O)c1ccccc1 | 9.61 µM (inactive) |

| SMILES | IC50 |
| --- | --- |
| CNC(=O)c1nnsc1S(=O)(=O)c1ccc(Cl)cc1 | 4.03 µM |
| O=C(N/N=C/c1cccc(F)c1)c1c(O)c2ccccc2[nH]c1=O | 6.48 µM (inactive) |
| O=C(Nc1ccccc1)Nc1cc(OCC(F)(F)F)cc(OCC(F)(F)F)c1 | 2.34 µM |
| O=c1cc(-c2c(F)c(F)c(F)c(F)c2F)oc2c(F)c(F)c(F)c(F)c12 | 3.98 µM |
| Cc1ccc(-c2nc(N)sc2-c2ccc(C)cc2)cc1 | 9.83 µM (inactive) |
| Cc1ccc(-c2nn(-c3ccccc3)cc2/C=N/NC(=O)c2ccc(Br)o2)cc1 | 5.04 µM |
| CCOC(=O)c1ccc(NC(=O)c2nc[nH]c2C(=O)N[C@@H](C)C(=O)OC(C)(C)C)cc1 | 5.92 µM (inactive) |
| CN(C)c1ccc(/C=C2\SC(=O)N(CCc3nnc(N)s3)C2=O)cc1 | 9.8 µM (inactive) |
| NC(=S)n1[nH]c(-c2ccc([N+](=O)[O-])cc2)c(N=Nc2ccc(Cl)cc2)c1=O | 5.74 µM (inactive) |
| O=[N+]([O-])c1ccc(-c2nn(-c3ccccc3)cc2/C=N/n2c(-c3cccs3)n[nH]c2=S)cc1 | > 10 µM (inactive) |
| CCCOc1ccccc1C1CC(=O)NC(C)=C1C(=O)OCC(C)C (stereo unspecified) | 5.14 µM (inactive) |
| CCCOC(=O)c1ccc(Oc2c(-c3ccc(OCC)cc3O)n[nH]c2C)cc1 | 2.34 µM |
| Cc1ccc(C(=O)N/C(=C\c2ccc(Br)cc2)c2nc(=S)[nH][nH]2)cc1 | 9.7 µM (inactive) |
| CCC1CCCCN1S(=O)(=O)c1ccc(C(=O)Nc2nnc(-c3ccccc3Cl)o2)cc1 (stereo unspecified) | 9.92 µM (inactive) |
| C=CCc1cc(C)ccc1OCC(O)CN1CCN(c2ccccc2)CC1 (stereo unspecified) | 3.94 µM (inactive) |
| C=CCn1c(SCC(=O)Nc2ccc(-c3nc4ccc(C)cc4s3)cc2)nnc1-c1ccccc1 | 9.89 µM (inactive) |
| CCc1ccc(-c2nc(CN3CCC(C(=O)NCCN(CC)c4ccccc4)CC3)c(C)o2)cc1 | 3.46 µM (inactive) |
| O=C(CCl)Nc1ccc(Sc2ccc(NC(=O)CCl)cc2)cc1 | 4.97 µM |
| CC(/C=N/n1c(C2CCCCC2)n[nH]c1=S)=C\c1ccccc1 | 5.88 µM (inactive) |
| CCCCCCNC(=O)CC(c1ccccc1)c1cc(Br)ccc1O (stereo unspecified) | 3.52 µM |
| COc1ccc(C2CC(c3c(-c4ccccc4)c4cc(Cl)ccc4[nH]c3=O)=NN2S(C)(=O)=O)cc1OC (stereo unspecified) | 8.04 µM (inactive) |
| Cc1ccc(NC(=O)O/N=C/c2c(C)nn(C(C)(C)C)c2C)cc1Cl | < 0.16 µM |
| O=C(OCn1ncc(Br)c(Br)c1=O)c1ccccc1Cl | 2.84 µM |
| COc1ccc2c3c(cccc13)C(=O)N(O)C2=O | 2.57 µM |

| SMILES | IC50 |
| --- | --- |
| CCN(CC)CCOC(=O)c1ccc(N/C=C(/C#N)c2nc(-c3cccc(OC)c3)cs2)cc1 | 9.3 µM (inactive) |
| Cc1cc(C2=NNC(=NC3CC3)SC2)c(C)n1-c1ccccc1F | < 0.16 µM |
| O=C1C(N2CCOCC2)=C(n2nnc3ccccc32)C(=O)c2ccccc21 | 9.64 µM (inactive) |
| COc1cc(OC)c(OC)cc1/C=N/Nc1ncnc2c1[nH]c1ccccc12 | 9.19 µM (inactive) |
| O=C1C(Nc2ccccc2)=C/C(=N/S(=O)(=O)c2cccs2)c2ccccc21 | 2.6 µM |
| CC(C)C[C@H](NC(=O)c1[nH]cnc1C(=O)Nc1ccccc1)C(=O)OC(C)(C)C | 5.95 µM (inactive) |
| Cc1ccc(N=C2SC(C(=O)Nc3ccc(OC(F)(F)F)cc3)C(N)=C2C(=O)Nc2c(C)cc(C)cc2C)cc1 (stereo unspecified) | > 10 µM (inactive) |
| COc1cc(/C=N/O)cc(Br)c1OCc1cccc(Cl)c1 | 6.16 µM (inactive) |
| C[C@H](NC(=O)c1nc[nH]c1C(=O)N[C@@H](Cc1ccccc1)C(=O)OC(C)(C)C)C(=O)OC(C)(C)C | 5.25 µM (inactive) |
| COC(=O)c1ccc2c(c1)C(C)(C)C(/C=C/c1ccc(OC)c(OC)c1OC)=[N+]2C | 9.48 µM (inactive) |
| Cn1c(=O)c(C(=O)Nc2ncccc2O)c(O)c2ccccc21 | 9.46 µM (inactive) |
| N#Cc1nccnc1S(=O)(=O)c1cccs1 | 2.67 µM |
| COc1cc(OC)nc(-n2ncc(Br)c(Br)c2=O)n1 | 1.93 µM |
| CCCCC(CC)Cn1c2nc3ccccc3nc2c2c(=N)oc(C)nc21 (stereo unspecified) | 7.13 µM (inactive) |
| CC(C)(C)c1cc(S(=O)(=O)CCc2ccccn2)cc(C(C)(C)C)c1F | 3.6 µM |
| Nc1c(C(=O)Nc2ccc(S(=O)(=O)N3CCCC3)cc2)sc2nc3ccc(OC(F)(F)F)cc3cc12 | 6.79 µM (inactive) |
| O=C(COC(=O)Cc1c(Cl)cccc1Cl)Nc1ccc(OC(F)(F)F)cc1 | > 10 µM (inactive) |
| CCOC(=O)Cc1csc(NC(=O)NC2(C(F)(F)F)Oc3cc(Cl)c(Cl)cc3O2)n1 | 4.04 µM |
| CCCCCc1ccc(OCCOCCn2c[n+](C)c3ccccc32)c(CCCCC)c1 | 3.52 µM |
| COc1ccc(CC(=O)Nc2cccc(-c3nnc(-c4cccc(C)c4)o3)c2)cc1OC | 5.17 µM (inactive) |
| Cc1ccc2c(C)nc(Nc3nc(CSc4nc5ccccc5[nH]4)cc(=O)[nH]3)nc2c1 | 3.8 µM (inactive) |
| CSc1nc(-c2ccccc2)nc(C(Cl)Cl)n1 | 5.1 µM |
| CCOC(=O)c1[nH]c2ccc(Cl)cc2c1-c1ccccc1 | 9.7 µM (inactive) |
| CCc1c(C)sc(NC(=O)CSc2nc3c(c(C(F)(F)F)n2)CCc2ccccc2-3)c1C#N | 9.75 µM (inactive) |
